Experimental data from patent publication US4598095A (priority 1982, dated 1986).
≈ marks a conversion by molar mass, not a printed value. Entries after “also recorded” stand apart in the source; their conditions may differ. Where a name gives a salt, the structure may show the parent alone.

Experiments:
[1] = system: rice blast fungus (Pyricularia oryzae); assay: whole plant or invertebrate; assay type: in vivo; conditions: 168 h, read-out: Protective Value
[2] = system: plant pathogenic fungi; conditions: foregoing literature; cited from earlier work
[3] = system: influenza virus, Adachi strain of A2-type; assay: microbe, parasite or virus in culture; assay type: cell-based; conditions: for virus proliferation-inhibiting index: 50% toxicity concentration / 50% virus proliferation-inhibiting concentration, 2880 min; for IC50: 48 h, read-out: 50% Virus Proliferation-Inhibiting Concentration
[4] = in vitro; conditions: chicken, chorioallantoic membrane
[5] = system: rice blast fungus (Pyricularia oryzae); assay type: in vivo; conditions: low dosage; for Protective Value: 100 ppm; for controlling effect against rice blast: Table 4
[6] = system: influenza virus, Adachi strain of A2-type; assay: microbe, parasite or virus in culture; assay type: cell-based; conditions: for virucidal index: 50% toxicity concentration / 50% virucidal concentration; for EC50: 2 h, read-out: 50% Virucidal Concentration
[7] = acute toxicity (LD50) by intraperitoneal administration to mice; conditions: mouse, in vivo, ip
Text: In evaluating acute toxicity (LD50 value) of the compounds of this invention, compound number 4 and compound number 25 of Table 1, respectively, were selected and examined for their acute toxicities by intraperitoneal administration to mice.

[8] = system: Pyricularia oryzae; conditions: Bokin Bobai, Vol. 9, No. 12, pages 551 to 561 (1981); cited from earlier work

CCCCCOc1ccc(C(C)=NNC(=N)SC)cc1 [Compound 38]
pest or weed control at 400 ppm [1]: 100%
effect against plant pathogenic fungi in vitro [2]: inactive against all of the plant pathogenic fungi
virus proliferation-inhibiting index [3]: > 8.0
IC50 [3]: 126 µg/mL (≈ 429 µM)
CC50 at 48 h [4]: > 1000 µg/mL

CN=C(NN=Cc1ccc(Cl)cc1)SC [Compound 7]
pest or weed control at 400 ppm [1]: 75%

CSC(=N)NN=Cc1ccc(C)cc1 [Compound 17]
pest or weed control at 400 ppm [1]: 100%

CCCCCCCCOc1ccc(C=CC(C)=NNC(=N)SC)cc1OC [Compound 47]
pest or weed control at 400 ppm [1]: 96%

CCCCOc1ccc(C=CC(C)=NNC(=N)SC)cc1 [Compound 44]
pest or weed control at 400 ppm [1]: 100%

CCCCOc1ccc(C=NNC(=N)SC)cc1 [Compound 20]
pest or weed control at 400 ppm [1]: 99%
Protective Value [5]: 100%
controlling effect against rice blast [5]: very excellent controlling effects
effect against plant pathogenic fungi in vitro [2]: never been observed to have effects of inhibiting proliferation of any of the pathogenic fungi

CCCC(=NNC(=N)SC)c1ccccc1 [Compound 23]
pest or weed control at 400 ppm [1]: 93%

N=C(NN=Cc1ccccc1)SCc1ccccc1 [Compound 2, Benzaldehyde-S-benzylisothiosemicarbazone Hydrochloride]
pest or weed control at 400 ppm [1]: 85%

CCCCSC(=N)NN=Cc1ccc(Cl)cc1Cl [Compound 9, 2',4'-Dichlorobenzaldehyde-S-butylisothiosemicarbazone Hydrochloride]
pest or weed control at 400 ppm [1]: 100%
virucidal index [6]: 19.9
EC50 [6]: 31.6 µg/mL
virus proliferation-inhibiting index [3]: 5.5
IC50 [3]: 115 µg/mL
CC50 at 48 h [4]: 632 µg/mL

CCCCCCCCCCCCOc1ccc(C=CC(C)=NNC(=N)SC)cc1 [Compound 46]
pest or weed control at 400 ppm [1]: 77%
virucidal index [6]: > 31.6
EC50 [6]: 31.6 µg/mL (≈ 75.7 µM)
virus proliferation-inhibiting index [3]: > 11.7
IC50 [3]: 85.2 µg/mL (≈ 204 µM)
CC50 at 48 h [4]: > 1000 µg/mL

CCCCSC(=N)NN=C(C)c1ccc(Cl)c(Cl)c1Cl [Compound 32]
pest or weed control at 400 ppm [1]: 96%

CCCCSC(=N)NN=C(C)c1ccc(OC)cc1 [Compound 36]
pest or weed control at 400 ppm [1]: 95%

CSC(=N)NN=Cc1ccc(Cl)cc1 [Compound 6, 4'-Chlorobenzaldehyde-S-methylisothiosemicarbazone Hydrochloride]
pest or weed control at 400 ppm [1]: 100%

CSC(=N)NN=C(C)c1ccc(O)cc1 [Compound 34]
pest or weed control at 400 ppm [1]: 93%

CSC(=N)NN=C(C)c1ccc(Cl)cc1 [Compound 25]
LD50 [7]: 150 mg/kg
pest or weed control at 400 ppm [1]: 100%
virucidal index [6]: 1.7
EC50 [6]: 215 µg/mL (≈ 889 µM)
virus proliferation-inhibiting index [3]: 24.6
IC50 [3]: 14.4 µg/mL (≈ 59.6 µM)
CC50 at 48 h [4]: 354 µg/mL (≈ 1470 µM)

CCCCCCCCOc1ccc(C(C)=NNC(=N)SC)cc1 [Compound 40]
pest or weed control at 400 ppm [1]: 85%

CCOc1ccc(C=NNC(=N)SC)cc1 [Compound 18]
pest or weed control at 400 ppm [1]: 100%
Protective Value [5]: 99%
controlling effect against rice blast [5]: very excellent controlling effects
effect against plant pathogenic fungi in vitro [2]: never been observed to have effects of inhibiting proliferation of any of the pathogenic fungi

CSC(=N)NN=Cc1ccc(Cl)cc1Cl [Compound 8]
pest or weed control at 400 ppm [1]: 97%
virucidal index [6]: 15.2
EC50 [6]: 46.4 µg/mL (≈ 177 µM)
virus proliferation-inhibiting index [3]: 35.7
IC50 [3]: 19.8 µg/mL (≈ 75.5 µM)
CC50 at 48 h [4]: 706 µg/mL (≈ 2690 µM)

CC(=NNC(=N)SCc1ccccc1)c1ccccc1 [Compound 22]
pest or weed control at 400 ppm [1]: 90%

CSC(=N)NN=C(C)c1ccc(Cl)c(Cl)c1Cl [Compound 31]
pest or weed control at 400 ppm [1]: 89%
virus proliferation-inhibiting index [3]: 16.6
IC50 [3]: 21.3 µg/mL (≈ 68.6 µM)
CC50 at 48 h [4]: 354 µg/mL (≈ 1140 µM)

CSC(=N)NN=Cc1ccccc1Cl [Compound 3]
pest or weed control at 400 ppm [1]: 96%

CSC(=N)NN=C(C)c1ccc(C)cc1 [Compound 33]
pest or weed control at 400 ppm [1]: 97%
virus proliferation-inhibiting index [3]: 20.0
IC50 [3]: 50 µg/mL (≈ 226 µM)
CC50 at 48 h [4]: 1000 µg/mL (≈ 4520 µM)

CSC(=N)NN=C(C)c1ccc(Cl)cc1Cl [Compound 29]
pest or weed control at 400 ppm [1]: 90%
virucidal index [6]: 1.8
EC50 [6]: 100 µg/mL (≈ 362 µM)
virus proliferation-inhibiting index [3]: 7.7
IC50 [3]: 23.2 µg/mL (≈ 84 µM)
CC50 at 48 h [4]: 180 µg/mL (≈ 652 µM)

COc1ccc(C(C)=NNC(=N)SC)cc1 [Compound 35]
pest or weed control at 400 ppm [1]: 100%
virus proliferation-inhibiting index [3]: 7.0
IC50 [3]: 14.2 µg/mL (≈ 59.8 µM)
CC50 at 48 h [4]: 99.4 µg/mL (≈ 419 µM)

CCCCSC(=N)NN=Cc1ccc(OCC)cc1 [Compound 19]
pest or weed control at 400 ppm [1]: 100%
virucidal index [6]: 3.2
EC50 [6]: 316 µg/mL (≈ 1130 µM)
Protective Value [5]: 93%
controlling effect against rice blast [5]: very excellent controlling effects
effect against plant pathogenic fungi in vitro [2]: never been observed to have effects of inhibiting proliferation of any of the pathogenic fungi
virus proliferation-inhibiting index [3]: > 25.2
IC50 [3]: 39.7 µg/mL (≈ 142 µM)
CC50 at 48 h [4]: > 1000 µg/mL

CN=C(NN=Cc1cccc(Cl)c1)SC [Compound 5, 3'-Chlorobenzaldehyde-S-methyl-4-N-methylisothiosemicarbazone Hydrochloride]
pest or weed control at 400 ppm [1]: 93%

CCOc1ccc(C=CC(C)=NNC(=N)SC)cc1 [Compound 43]
pest or weed control at 400 ppm [1]: 100%
virucidal index [6]: 3.2
EC50 [6]: 316 µg/mL (≈ 1140 µM)
Protective Value [5]: 97%
controlling effect against rice blast [5]: very excellent controlling effects
effect against plant pathogenic fungi in vitro [2]: never been observed to have effects of inhibiting proliferation of any of the pathogenic fungi; also recorded: inactive against all of the plant pathogenic fungi
virus proliferation-inhibiting index [3]: 7.1
IC50 [3]: 141 µg/mL (≈ 508 µM)
CC50 at 48 h [4]: > 1000 µg/mL

CCCC(=NNC(=NC)SC)c1ccc(Cl)cc1 [Compound 28]
pest or weed control at 400 ppm [1]: 94%
virus proliferation-inhibiting index [3]: 12.6
IC50 [3]: 63 µg/mL (≈ 222 µM)
CC50 at 48 h [4]: 794 µg/mL (≈ 2800 µM)

CSC(=N)NN=C(C)c1ccccc1 [Compound 21]
pest or weed control at 400 ppm [1]: 100%
virus proliferation-inhibiting index [3]: 12.6
IC50 [3]: 12.5 µg/mL (≈ 60.3 µM)
CC50 at 48 h [4]: 158 µg/mL (≈ 760 µM)

CSC(=N)NN=Cc1cccc(Cl)c1 [Compound 4]
LD50 [7]: 200 mg/kg
pest or weed control at 400 ppm [1]: 100%
virucidal index [6]: 5.7
EC50 [6]: 175 µg/mL (≈ 768 µM)
virus proliferation-inhibiting index [3]: > 54.0
IC50 [3]: 18.5 µg/mL (≈ 81.2 µM)
CC50 at 48 h [4]: > 1000 µg/mL

CSC(=N)NN=C(C)c1ccc(Cl)c(Cl)c1 [Compound 30]
pest or weed control at 400 ppm [1]: 88%
MIC Value in Literature [8]: 12.5 µg/mL (≈ 45.3 µM)
Protective Value [5]: 66%
controlling effect against rice blast [5]: low protective values

CSC(=N)NN=C(C)C=Cc1ccc(Cl)cc1 [Compound 42]
pest or weed control at 400 ppm [1]: 88%
virucidal index [6]: 4.2
EC50 [6]: 170 µg/mL (≈ 635 µM)
virus proliferation-inhibiting index [3]: 7.1
IC50 [3]: 100 µg/mL (≈ 373 µM)
CC50 at 48 h [4]: 710 µg/mL (≈ 2650 µM)

CCCC(=NNC(=N)SC)c1ccc(Cl)cc1 [Compound 27]
pest or weed control at 400 ppm [1]: 100%

CCCCCCOc1ccc(C=CC(C)=NNC(=N)SC)cc1 [Compound 45]
pest or weed control at 400 ppm [1]: 96%

CCCCSC(=N)NN=Cc1ccc(F)cc1 [Compound 15]
pest or weed control at 400 ppm [1]: 93%

CCC(=NNC(=N)SC)c1ccc(Cl)cc1 [Compound 26]
pest or weed control at 400 ppm [1]: 100%

CSC(=N)NN=Cc1ccccc1 [Compound 1]
pest or weed control at 400 ppm [1]: 90%

CSC(=N)NN=Cc1ccc(Cl)c(Cl)c1 [Compound 11, 3',4'-Dichlorobenzaldehyde-S-methylisothiosemicarbazone Hydrochloride]
pest or weed control at 400 ppm [1]: 98%
virucidal index [6]: 15.2
EC50 [6]: 46.4 µg/mL
virus proliferation-inhibiting index [3]: 33.2
IC50 [3]: 21.3 µg/mL
CC50 at 48 h [4]: 707 µg/mL

NC12CC3CC(CC(C3)C1)C2 [Am, Adamantaneamine Hydrochloride, reference compound]
virucidal index [6]: 1.5
EC50 [6]: 649 µg/mL
virus proliferation-inhibiting index [3]: 30.4
IC50 [3]: 32.9 µg/mL
CC50 at 48 h [4]: 1000 µg/mL

CN=C(NN=Cc1ccc(Cl)c(Cl)c1)SC [Compound 10]
pest or weed control at 400 ppm [1]: 88%
MIC Value in Literature [8]: 12.5 µg/mL (≈ 45.3 µM)
Protective Value [5]: 67%
controlling effect against rice blast [5]: low protective values

CSC(=N)NN=C(C)c1cccc(Cl)c1 [Compound 24]
pest or weed control at 400 ppm [1]: 89%
virucidal index [6]: 3.3
EC50 [6]: 215 µg/mL (≈ 889 µM)
virus proliferation-inhibiting index [3]: 28.3
IC50 [3]: 25 µg/mL (≈ 103 µM)
CC50 at 48 h [4]: 708 µg/mL (≈ 2930 µM)

CSC(=N)NN=Cc1c(Cl)cccc1Cl [Compound 12]
pest or weed control at 400 ppm [1]: 100%

CCCCCCCCCCOc1ccc(C(C)=NNC(=N)SC)cc1 [Compound 41]
pest or weed control at 400 ppm [1]: 94%
virucidal index [6]: 6.9
EC50 [6]: 145 µg/mL (≈ 399 µM)
virus proliferation-inhibiting index [3]: < 5.0
IC50 [3]: > 200 µg/mL
CC50 at 48 h [4]: 1000 µg/mL (≈ 2750 µM)

CSC(=N)NN=Cc1cc(Cl)cc(Cl)c1 [Compound 13]
pest or weed control at 400 ppm [1]: 100%
virus proliferation-inhibiting index [3]: 14.0
IC50 [3]: 50 µg/mL (≈ 191 µM)
CC50 at 48 h [4]: 700 µg/mL (≈ 2670 µM)

CSC(=N)NN=Cc1cc(Cl)cc(Cl)c1O [Compound 14]
pest or weed control at 400 ppm [1]: 98%
virus proliferation-inhibiting index [3]: > 66.7
IC50 [3]: 15 µg/mL (≈ 53.9 µM)
CC50 at 48 h [4]: > 1000 µg/mL

CSC(=N)NN=Cc1cccc(Br)c1 [Compound 16]
pest or weed control at 400 ppm [1]: 100%

CCCCCOc1ccc(C(C)=NNC(=N)SCCCC)cc1 [Compound 39]
pest or weed control at 400 ppm [1]: 100%

CCOc1ccc(C(C)=NNC(=N)SC)cc1 [Compound 37]
pest or weed control at 400 ppm [1]: 89%
virus proliferation-inhibiting index [3]: 7.1
IC50 [3]: 12.5 µg/mL (≈ 49.7 µM)
CC50 at 48 h [4]: 88.8 µg/mL (≈ 353 µM)
